Assays:
[1] = tested on: chemically induced neuropathic pain; conditions: Kautio et al. 2008; Mitchell et al. 2006; cited from earlier work
[2] = tested on: oxaliplatin-induced neuropathy; conditions: chronic oxaliplatin, day 31; group O; FIG. 5
Method: (§1) The animals in the control group received an injection of 5% glucose by the same route, at the same frequency and the same volume.
(§2) These tablets were reduced to a fine powder, and placed in suspension in water containing 0.5% carboxymethylcellulose (Sigma Aldrich, France) in order to obtain a solution at 4 mg/ml. […] The animals in the control group simply received an administration of 0.5% carboxymethylcellulose by the same route, at the same volume and the same frequency.
This test takes place in an arena equipped with a camera in which two animals are placed in one another's presence for 10 minutes. The purpose of this test is to measure the interaction time between the animals. The two studied animals are always part of the same experimental condition group to prevent the behavior of one rat from influencing the other. The rats interact with one another by sniffing, grooming, chasing, etc. An increase in interactions indicates a non-anxious state of the rat, while a decrease and tendency toward prostration indicates an anxious state of the animal. At the beginning of the experiment, the animals are placed in opposite corners of the arena and the handler leaves the room. The arena is cleaned between two experiments to prevent the odors from the previous rats from disrupting the results.
A dose of 5 mg/kg was administered to the animals in groups D and O-D 30 minutes before the test.

[3] = tested on: oxaliplatin-induced neuropathy; conditions: chronic oxaliplatin, study D0 to D28; group O; FIG. 4
Method: as §1, §2
The rats' tails are submerged in a cold water bath (10° C.). The immersion is maintained until the animal withdraws its tail. The latency of the withdrawal is clocked. Each measurement is done in triplicate.
(§3) The trials were conducted over a period of 3 hours, on all 4 groups of rats. The time t0 corresponds to the moment of the injection.

[4] = tested on: oxaliplatin-induced neuropathy; conditions: chronic oxaliplatin, study D0 to D28; group O; FIG. 3
Method: as §1, §2
The Von Frey electronic apparatus (Chaplan et al., 1994) includes a portable sleeve made up of an elastic tip connected to a force sensor. The rats are placed in Plexiglas boxes, arranged on a raised grate. After a habituation period of the rats, the tip is applied perpendicularly to the center of the 5 plantar pads of each of rear paw. […] The intensity of the stimulus, the maximum applied pressure (expressed in grams) is recorded by the device upon withdrawal of the paw.
as §3

[5] = Park et al. 2011; treatment using oxaliplatin and/or cisplatin; cited from earlier work

Structure (SMILES)	relief in patients treated with oxaliplatin [1]	anxiety level (social interaction time) vs Sham group [2]	sensitivity to cold stimulation compared to Sham group [3]	sensitivity to mechanical stimulation compared to Sham group [4]	affected patients in whom the neuropathy becomes persistent [5]
NCC1(CC(=O)O)CCCCC1 [gabapentin]	have not provided any relief				
CN(C)CCC=C1c2ccccc2CCc2ccccc21 [amitriptyline]	have not provided any relief				
O=C1[O][Pt-2]2([NH2+]C3CCCC[C@H]3[NH2+]2)[O]C1=O (stereo in doubt) [oxaliplatin, cis-[(1R, 2R)-1,2-cyclohexanediamine-N, N′] [oxaloto (2)-O, O′] platinum]		significantly more anxious than the animals in the Sham group	increased sensitivity	increased sensitivity to mechanical stimulation	approximately 80%

From US20170128428A1 (priority 2014, published 2017)
